Seven compounds from patent US20240368173A1, “TRICYCLIC GPR65 MODULATORS” (PATHIOS THERAPEUTICS LIMITED, priority 2021, published 2024) can be followed below.

Structures are written as SMILES. pIC50: −log10 of the molar value.

This experiment addresses human recombinant GPR65 (Homo sapiens, UniProt Q8IYL9). Nature of the experiment: Human GPR65 cAMP HTRF antagonist assay. Type of experiment: cell-based. The gist of the method:
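1321N1 astrocytoma cells stably expressing hrGPR65, with IBMX and EDTA, were preincubated with compound 30 min at room temperature, then acid-activated at assay pH 7.2 (control pH 7.9) for 30 min. cAMP read by HTRF (665/620 nm ratio); IC50 from 4-parameter fit normalised to high/low controls.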
On the technique in general: Time-resolved FRET reads energy transfer from a long-lived donor to a nearby acceptor.

human recombinant GPR65, sequence (Q8IYL9 whole entry): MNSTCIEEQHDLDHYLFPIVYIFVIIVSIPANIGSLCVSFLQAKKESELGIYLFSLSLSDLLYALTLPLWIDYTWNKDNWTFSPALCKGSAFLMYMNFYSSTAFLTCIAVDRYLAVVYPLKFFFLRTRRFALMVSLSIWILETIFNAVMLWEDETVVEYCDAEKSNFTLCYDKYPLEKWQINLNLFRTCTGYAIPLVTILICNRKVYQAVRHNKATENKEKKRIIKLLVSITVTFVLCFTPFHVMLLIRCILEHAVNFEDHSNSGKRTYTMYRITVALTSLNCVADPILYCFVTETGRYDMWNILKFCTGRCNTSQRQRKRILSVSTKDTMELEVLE

`CO[C@H]1CC[C@H](Oc2ccc(-c3cc(F)c(NC(=O)N4[C@H]5CC[C@@H]4c4n[nH]c(=O)cc4C5)cc3Cl)cn2)CC1` [Compound 337, (6S,9R)-N-(5-chloro-2-fluoro-4-(6-(((1r,4r)-4-methoxycyclohexyl)oxy)pyridin-3-yl)phenyl)-3-oxo-3,5,6,7,8,9-hexahydro-2H-6,9-epiminocyclohepta[c]pyridazine-10-carboxamide]: the pIC50 is more than 6.30. Then `O=C(Nc1cc(Cl)c(-c2ccc(OCC3CC3(F)F)nc2)cc1F)N1[C@H]2CC[C@@H]1c1n[nH]c(=O)cc1C2` (stereo partly drawn) [Compound 338, (6S,9R)-N-(5-Chloro-4-(6-((2,2-difluorocyclopropyl)methoxy)pyridin-3-yl)-2-fluorophenyl)-3-oxo-3,5,6,7,8,9-hexahydro-2H-6,9-epiminocyclohepta[c]pyridazine-10-carboxamide], with more than 6.30; and `O=C(Nc1cc(Cl)c(-c2ccc3nonc3c2)cn1)N1[C@H]2CC[C@@H]1c1ccnc(F)c1C2` [Compound 339, (5R,8S)-N-(5-(Benzo[c][1,2,5]oxadiazol-5-yl)-4-chloropyridin-2-yl)-1-fluoro-6,7,8,9-tetrahydro-5H-5,8-epiminocyclohepta[c]pyridine-10-carboxamide], with more than 6.30; and `O=C(Nc1cc(Cl)c(-c2ccc(N3CCOCC3)nc2)cc1F)N1[C@H]2CC[C@@H]1c1n[nH]c(=O)cc1C2` [Compound 340, (6S,9R)-N-(5-Chloro-2-fluoro-4-(6-morpholinopyridin-3-yl)phenyl)-3-oxo-3,5,6,7,8,9-hexahydro-2H-6,9-epiminocyclohepta[c]pyridazine-10-carboxamide], with more than 6.30. Take `O=C(Nc1cc(Cl)c(-c2ccc(N3CCC3)nc2)cc1F)N1[C@H]2CC[C@@H]1c1n[nH]c(=O)cc1C2` [Compound 341, (6S,9R)-N-(4-(6-(Azetidin-1-yl)pyridin-3-yl)-5-chloro-2-fluorophenyl)-3-oxo-3,5,6,7,8,9-hexahydro-2H-6,9-epiminocyclohepta[c]pyridazine-10-carboxamide]: the pIC50 is more than 6.30. For `O=C(Nc1cc(Cl)c(-c2ccc(OC3CCOC3)nc2)cc1F)N1[C@H]2CC[C@@H]1c1n[nH]c(=O)cc1C2` (stereo partly drawn) [Compound 342, (6S,9R)-N-(5-Chloro-2-fluoro-4-(6-((tetrahydrofuran-3-yl)oxy)pyridin-3-yl)phenyl)-3-oxo-3,5,6,7,8,9-hexahydro-2H-6,9-epiminocyclohepta[c]pyridazine-10-carboxamide] the value was more than 6.30; for `CO[C@H]1CC[C@@H](Oc2ccc(-c3cc(F)c(NC(=O)N4[C@H]5CC[C@@H]4c4n[nH]c(=O)cc4C5)cc3Cl)cn2)CC1` [Compound 343, (6S,9R)-N-(5-Chloro-2-fluoro-4-(6-(((1s,4s)-4-methoxycyclohexyl)oxy)pyridin-3-yl)phenyl)-3-oxo-3,5,6,7,8,9-hexahydro-2H-6,9-epiminocyclohepta[c]pyridazine-10-carboxamide], more than 6.30.

Usually pIC50 stands for the IC50 on a negative log10 scale, so that one unit is a factor of ten.
